Values quoted from earlier work in article PMC11477967, “Review of the Structural Characteristics and Biological Activities of Tricholoma Secondary Metabolites (2018–2023)” (Molecules, 2024).
One block for each molecule: values may come before it.

What was measured:
SMMC-7721 = tested on: SMMC-7721; parameters: method as in PMID 29758519, PMID 32534274
SW480 = tested on: SW480; parameters: method as in PMID 29758519, PMID 32534274
[1] = tested on: nitric oxide (NO) production in lipopolysaccharide (LPS)-induced RAW264.7 macrophages; details: for Bioactivities: Anti-inflammatory activity: Table 1 summary; for IC50: LPS-induced RAW264.7 macrophages
human tumor cell lines = tested on: human tumor cell lines; parameters: method as in PMID 29758519, PMID 32534274, PMID 26186257; details: Table 1 summary
A-549 [2] = tested on: A-549
MCF-7 [3] = tested on: MCF-7
A549 = tested on: A549; parameters: method as in doi:10.1177/1934578X1801300901; details: said to surpass shikonin
Hep G2 [4] = tested on: Hep G2; parameters: method as in doi:10.1177/1934578X1801300901; details: said to surpass shikonin
Caki-1 [5] = tested on: Caki-1; parameters: method as in doi:10.1177/1934578X1801300901
MCF-7 [6] = tested on: MCF-7; parameters: method as in doi:10.1177/1934578X1801300901
WISH = tested on: WISH; parameters: method as in doi:10.1177/1934578X1801300901
human cancer cell lines = details: for Bioactivities: Cytotoxic against human cancer cell lines: Table 1 summary
A-549 [7] = tested on: A-549; parameters: method as in PMID 37175274
Hep G2 [8] = tested on: Hep G2; parameters: method as in PMID 37175274
Caki-1 [9] = tested on: Caki-1; parameters: method as in PMID 37175274
MCF-7 [10] = tested on: MCF-7; parameters: method as in PMID 37175274
bacteria = tested on: bacteria; parameters: method as in PMID 32534274, PMID 26186257, PMID 34604687, PMID 28794307; details: Table 1 summary

Compound: COC(=O)C(Cc1ccccc1)NC(=O)CC(C)(O)CC(=O)OC1C(O)CC2(C)C3=C(CCC2C1(C)C)C1(C)CCC(C(C)CCC(O)C(C)(C)O)C1(C)C(O)C3 (stereo not drawn) [Compound 2, pardinol B]
IC50 (SMMC-7721): < 40 µM
IC50 (SW480): < 40 µM
Bioactivities: Anti-inflammatory activity [1]: Anti-inflammatory activity
Bioactivities: Anti-cancer activity (human tumor cell lines): Anti-cancer activity
IC50 (HL-60): < 40 µM
IC50 (A-549 [2]): < 40 µM
IC50 (MCF-7 [3]): < 40 µM

Compound: COC(=O)C(NC(=O)CC(C)(O)CC(=O)OC1CC2(C)C3=C(CCC2C(C)(C)C1O)C1(C)CCC(C(C)CCC(O)C(C)(C)O)C1(C)C(O)C3)C(OC(C)=O)c1ccccc1 (stereo not drawn) [Compound 5, pardinol E]
Bioactivities: Anti-inflammatory activity [1]: Anti-inflammatory activity
Bioactivities: Anti-cancer activity (human tumor cell lines): Anti-cancer activity

Compound: COC(=O)C(NC(=O)CC(C)(O)CC(=O)OC1C(O)CC2(C)C3=C(CCC2C1(C)C)C1(C)CCC(C(C)CCC(O)C(C)(C)O)C1(C)C(O)C3)C(OC(C)=O)c1ccccc1 (stereo not drawn) [Compound 6, pardinol F]
Bioactivities: Anti-inflammatory activity [1]: Anti-inflammatory activity
Bioactivities: Anti-cancer activity (human tumor cell lines): Anti-cancer activity

Compound: COC(=O)C(NC(=O)CC(C)(O)CC(=O)OC1C(O)CC2(C)C3=C(CCC2C1(C)C)C1(C)CCC(C2CCC(C(C)(C)O)OC2O)C1(C)C(O)C3)C(O)c1ccccc1 (stereo not drawn) [Compound 7, pardinol G]
Bioactivities: Anti-inflammatory activity [1]: Anti-inflammatory activity
Bioactivities: Anti-cancer activity (human tumor cell lines): Anti-cancer activity

Compound: COC(=O)C(NC(=O)CC(C)(O)CC(=O)OC1C(O)CC2(C)C3=C(CCC2C1(C)C)C1(C)CCC(C2CCC(C(C)(C)O)OC2O)C1(C)C(O)C3)C(OC(C)=O)c1ccccc1 (stereo not drawn) [Compound 8, pardinol H]
Bioactivities: Anti-inflammatory activity [1]: Anti-inflammatory activity
Bioactivities: Anti-cancer activity (human tumor cell lines): Anti-cancer activity

Compound: C=C(CCC(C)C1CCC2(C)C3=C(CC(O)C12C)C1(C)CCC(OC(=O)CC(=O)OC)C(C)(C)C1CC3)C(C)C(=O)O [Compound 16, (25S)-(+)-12α-hydroxy-3α-methylcarboxyacetate-24-methyllanosta-8,24(31)-diene-26-oic acid]
Bioactivities: Anti-cancer activity (human tumor cell lines): Anti-cancer activity

Compound: CC(C)C(C)C=CC(C)C1CCC2C3(O)C=CC4=CC(=O)CCC4(C)C3CCC12C (stereo not drawn) [Compound 26, isocyathisterol]
IC50 (SMMC-7721): < 40 µM
IC50 (SW480): < 40 µM
Bioactivities: Anti-cancer activity (human tumor cell lines): Anti-cancer activity
IC50 (HL-60): < 40 µM
IC50 (A-549 [2]): < 40 µM
IC50 (MCF-7 [3]): < 40 µM

Compound: CC(C)[C@@H](C)/C=C/[C@@H](C)[C@H]1CC(=O)[C@H]2C3=C(CC[C@@]21C)[C@@]1(C)CC[C@H](O)CC1=CC3=O [Compound 29, 3β-hydroxyl-(22E,24R)-ergosta-5,8,22-trien-7,15-dione]
Bioactivities: Anti-cancer activity (human tumor cell lines): Anti-cancer activity
IC50 (HL-60): < 10 µM

Compound: CC(C)[C@@H](C)/C=C/[C@@H](C)[C@H]1CC[C@H]2C3=C(CC[C@]12C)[C@@]1(C)CC[C@H](O)CC1=CC3=O [Compound 30, 3β-hydroxyl-(22E,24R)-ergosta-5,8,22-trien-7-one]
Bioactivities: Anti-cancer activity (human tumor cell lines): Anti-cancer activity
IC50 (HL-60): < 10 µM

IC50 (HL-60): < 40 µM
IC50 (A-549 [2]): < 40 µM
IC50 (MCF-7 [3]): < 40 µM
Compound: CC(C)[C@@H](C)/C=C/[C@@H](C)[C@H]1C[C@H](O)C2=C3C(=O)C=C4C[C@@H](O)CC[C@]4(C)[C@H]3CC[C@@]21C [Compound 32, 3β,15α-dihydroxyl-(22E,24R)-ergosta-5,8(14),22-trien-7-one]
IC50 (SMMC-7721): < 40 µM
IC50 (SW480): < 40 µM
Bioactivities: Anti-cancer activity (human tumor cell lines): Anti-cancer activity

Compound: CC(C)[C@@H](C)/C=C/[C@@H](C)[C@H]1CC(=O)C2=C3C(=O)C=C4C[C@@H](O)CC[C@]4(C)[C@H]3CC[C@@]21C [Compound 34, 3β-hydroxyl-(22E,24R)-ergosta-5,8(14),22-trien-7,15-dione]
Bioactivities: Anti-cancer activity (human tumor cell lines): Anti-cancer activity

Compound: CC(C)[C@@H](C)/C=C/[C@@H](C)[C@H]1CC[C@H]2C3=C(CC[C@]12C)[C@@]1(C)CC[C@H](O)C[C@@]12O[C@H]2[C@@H]3O [Compound 35, 5α,6α-epoxy-(22E,24R)-ergosta-8,22-diene-3β,7β-diol]
Bioactivities: Anti-cancer activity (human tumor cell lines): Anti-cancer activity

IC50 (HL-60): < 40 µM
IC50 (A-549 [2]): < 40 µM
IC50 (MCF-7 [3]): < 40 µM
Compound: CC(C)C(C)C=CC(C)C1CCC2C3=CC(=O)OC3(O)CCC21C (stereo not drawn) [Compound 41, demethylincisterol A3]
IC50 (SMMC-7721): < 40 µM
IC50 (SW480): < 40 µM
Bioactivities: Anti-cancer activity (human tumor cell lines): Anti-cancer activity

IC50 (HL-60): < 40 µM
IC50 (MCF-7 [3]): < 40 µM
Compound: COC12CCC3(C)C(CCC3C(C)C=CC(C)C(C)C)C1=CC(=O)O2 (stereo not drawn) [Compound 42, volemolide]
IC50 (SMMC-7721): < 40 µM
IC50 (SW480): < 40 µM
Bioactivities: Anti-cancer activity (human tumor cell lines): Anti-cancer activity

IC50 [1]: 27.6 µM
Compound: CC(C)[C@@H](C)/C=C/[C@@H](C)[C@@H](CC(=O)O)[C@@]1(C)CCC2=C(C1=O)[C@H](O)[C@@H]1O[C@@]13C[C@@H](O)CC[C@]23C [Compound 46, tricholosterol A]
Bioactivities: Anti-inflammatory activity [1]: Anti-inflammatory activity

IC50 [1]: 31.8 µM
Compound: CC(C=CC(C)(O)C1CC(O)C2C3=CC(=O)OC3=CCC21C)C(C)(C)O (stereo not drawn) [Compound 49, tricholosterol D]
Bioactivities: Anti-inflammatory activity [1]: Anti-inflammatory activity

Compound: C=C1CCC(CC=C2CCC3(OC2)OC2(O)CCC3(C)OC2(C)C)C(C)(C)C1C(O)C=C1CCOC1=O (stereo not drawn) [Compound 55, saponaceolide T]
antiproliferative effects (A549): strong antiproliferative effects
antiproliferative effects (Hep G2 [4]): strong antiproliferative effects
antiproliferative effects (Caki-1 [5]): strong antiproliferative effects
antiproliferative effects (MCF-7 [6]): strong antiproliferative effects
antiproliferative effects (WISH): strong antiproliferative effects
Bioactivities: Cytotoxic against human cancer cell lines (human cancer cell lines): Cytotoxic against human cancer cell lines

Compound: C=C1CCC(CCC2CCC3(OC2)OC2(O)CCC3(C)OC2(C)C)C(C)(C)C1CC=C1CCOC1=O (stereo not drawn) [Compound 57, saponaceolide B]
inhibitory effects (A-549 [7]): notable inhibitory effects
inhibitory effects (Hep G2 [8]): notable inhibitory effects
inhibitory effects (Caki-1 [9]): notable inhibitory effects
inhibitory effects (MCF-7 [10]): notable inhibitory effects
Bioactivities: Cytotoxic against human cancer cell lines (human cancer cell lines): Cytotoxic against human cancer cell lines

Compound: C=C1CCC(CCC2CCC3(OC2)OC2(O)CCC3(C)OC2(C)C)C(C)(C)C1C(O)C=C1C(=O)OCC1O (stereo not drawn) [Compound 58, saponaceolide C]
antiproliferative effects (A549): strong antiproliferative effects
antiproliferative effects (Hep G2 [4]): strong antiproliferative effects
antiproliferative effects (Caki-1 [5]): strong antiproliferative effects
antiproliferative effects (MCF-7 [6]): strong antiproliferative effects
antiproliferative effects (WISH): strong antiproliferative effects
Bioactivities: Cytotoxic against human cancer cell lines (human cancer cell lines): Cytotoxic against human cancer cell lines

Compound: C=C1CCC(CCC2CCC3(OC2)OC2(O)CCC3(C)OC2(C)C)C(C)(C)C1C(O)C=C1CCOC1=O (stereo not drawn) [Compound 61, saponaceolide H]
antiproliferative effects (A549): strong antiproliferative effects
antiproliferative effects (Hep G2 [4]): strong antiproliferative effects
antiproliferative effects (Caki-1 [5]): strong antiproliferative effects
antiproliferative effects (MCF-7 [6]): strong antiproliferative effects
antiproliferative effects (WISH): strong antiproliferative effects
Bioactivities: Cytotoxic against human cancer cell lines (human cancer cell lines): Cytotoxic against human cancer cell lines
cytotoxicity rank (human cancer cell lines; among 55, 56, 58, 60, 61, cell line not specified): most significant cytotoxicity

Compound: C=C1CCC(CC=C2CCC3(OC2)OC2(O)CCC3(C)OC2(C)C)C(C)(C)C1CC=C1CCOC1=O (stereo not drawn) [Compound 62, saponaceolide J]
inhibitory effects (A-549 [7]): notable inhibitory effects
inhibitory effects (Hep G2 [8]): notable inhibitory effects
inhibitory effects (Caki-1 [9]): notable inhibitory effects
inhibitory effects (MCF-7 [10]): notable inhibitory effects
Bioactivities: Cytotoxic against human cancer cell lines (human cancer cell lines): Cytotoxic against human cancer cell lines

IC50 [1]: 16.2 µM
Compound: C=C1CC[C@@H](CCO)C(C)(C)[C@H]1C/C=C1/C(=O)OC[C@@H]1O [Compound 70, tricholopardin B]
Bioactivities: Anti-inflammatory activity [1]: Anti-inflammatory activity

Compound: CCC1(O)OCC(N2C(=O)CCC2OC)C2=C1C(OC)CC2OC(=O)CC(C)C (stereo not drawn) [Compound 84, pardinumone A]
Bioactivities: Antibacterial activity (bacteria): Antibacterial activity

Compound: CCC1(O)OCC(N2C(=O)CCC2OC)C2=C1C(OC)CC2OC(=O)CC(C)C (stereo not drawn) [Compound 85, pardinumone B]
Bioactivities: Antibacterial activity (bacteria): Antibacterial activity

Compound: CC=C1OCC(NC(=O)CCC(N)C(=O)O)C2=C1C(OC)CC2OC(=O)CC(C)C (stereo not drawn) [Compound 86, pardinumone C]
Bioactivities: Antibacterial activity (bacteria): Antibacterial activity

Compound: CCC(=O)C1=C(C(COC(C)=O)NC(=O)CCC(N)C(=O)O)C(OC(=O)CC(C)C)CC1OC (stereo not drawn) [Compound 87, pardinumone D]
Bioactivities: Antibacterial activity (bacteria): Antibacterial activity
